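Interpolation was linear, between the two tested concentrations surrounding the appropriate level; five concentrations were tested over 48 hours in 96-well plates. GI50 = concentration required for 50% inhibition of growth.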 Activity calls are given as the source filed them. No stated cut-off is given here; in the data, active = GI50 up to about 1.1 µM and inactive = higher. Where a SMILES comes first, the peptide text is derived from it. The star is where a group is joined. Boc = CC(C)(C)OC(=O)*
Columns and labels:
Experiment in all cases: DTP human tumour cell line panel, 48 h
[1] = test system: SNB-19
[2] = test system: HT-29
[3] = test system: NCI-H522
[4] = test system: LOX IMVI
[5] = test system: IGROV-1
[6] = test system: OVCAR-4
[7] = test system: U-251
[8] = test system: A549
[9] = test system: SK-OV-3
[10] = test system: SW-620
[11] = test system: SK-MEL-28
[12] = test system: HL-60
[13] = test system: MDA-MB-231
[14] = test system: MOLT-4
[15] = test system: T47D
[16] = test system: HOP-62
[17] = test system: OVCAR-3
[18] = test system: K562
[19] = test system: SNB-75
[20] = test system: HCC 2998

Measured: GI50

CCOC(=O)C(=[N+]=[N-])C(=O)CSC#N
inactive: [1] 97.5 µM | [2] 39.3 µM | [3] 24.4 µM | [4] 21.7 µM | [5] > 100 µM | [6] 40.6 µM | [7] 46.5 µM | [8] 97.7 µM | [9] > 100 µM | [10] 57.3 µM | [11] > 100 µM | [12] 39.3 µM | [13] 82.2 µM | [14] 39.2 µM | [15] > 100 µM | [16] > 100 µM

CCN(CC)C(=S)SNCCc1ccc(S(N)(=O)=O)cc1
inactive: [1] 20 µM | [2] 10.2 µM | [4] 8 µM | [6] 14.4 µM | [17] 18.9 µM | [7] 15.5 µM | [8] 11.9 µM | [9] 25.4 µM | [10] 14.1 µM | [18] 20 µM | [11] 9.23 µM | [19] 13.9 µM | [20] 21.6 µM | [13] 14.7 µM | [15] 18.1 µM | [16] 12.2 µM

COC(=O)C1=C(O)C(C(=O)OC)[C@@]2(O)[C@@H](C(=O)OC)C(c3ccc(OC(=O)/C(=C/c4ccccc4)c4ccccc4)cc3)C[C@@H]1[C@@H]2C(=O)OC (stereo partly drawn)
inactive: [1] 30 µM | [2] 25.4 µM | [3] 13.3 µM | [4] 4.71 µM | [5] 19 µM | [6] 16.9 µM | [17] 35.6 µM | [7] 11.2 µM | [8] 69.2 µM | [9] > 100 µM | [10] 8.09 µM | [18] 9.25 µM | [11] 81.5 µM | [19] 12.1 µM | [12] 17.4 µM | [13] 23.9 µM | [14] 3.72 µM | [15] > 100 µM | [16] > 100 µM

CC(NC(=O)C1CCCN1C(=O)CNC(=O)OC(C)(C)C)C(=O)O (stereo not drawn) (Boc-Gly-Pro-Ala-OH; configuration not given here)
inactive: [1] > 100 µM | [2] > 100 µM | [3] > 100 µM | [5] > 100 µM | [17] > 100 µM | [7] > 100 µM | [8] > 100 µM | [9] > 100 µM | [10] > 100 µM | [18] > 100 µM | [11] > 100 µM | [19] > 100 µM | [20] > 100 µM | [13] > 100 µM | [14] > 100 µM | [15] > 100 µM | [16] > 100 µM

CC(=O)Oc1ccn2nc(C)c(Cc3c(C)nn4ccc(OC(C)=O)cc34)c2c1
inactive: [1] > 100 µM | [2] > 100 µM | [3] 33.2 µM | [4] 79.1 µM | [5] > 100 µM | [6] > 100 µM | [17] > 100 µM | [7] 62.7 µM | [8] > 100 µM | [10] > 100 µM | [18] 37.8 µM | [11] > 100 µM | [19] 54.8 µM | [12] 39.1 µM | [13] > 100 µM | [14] 49.8 µM | [15] > 100 µM | [16] 48 µM

Cc1n[nH]c(=O)n1/N=C/c1cccc(Cl)c1
inactive: [1] > 100 µM | [2] > 100 µM | [6] 76.9 µM | [17] > 100 µM | [7] 65.5 µM | [8] > 100 µM | [9] > 100 µM | [10] > 100 µM | [18] > 100 µM | [11] > 100 µM | [19] 61.5 µM | [20] > 100 µM | [13] > 100 µM | [14] 49.3 µM | [15] > 100 µM | [16] 49.3 µM

O=C1CC2C(=O)C1C(C(=O)O)C2C(=O)O (stereo not drawn)
inactive: [1] > 100 µM | [2] > 100 µM | [3] > 100 µM | [4] > 100 µM | [5] > 100 µM | [6] > 100 µM | [17] > 100 µM | [7] > 100 µM | [8] > 100 µM | [9] > 100 µM | [10] > 100 µM | [18] > 100 µM | [11] > 100 µM | [12] > 100 µM | [13] > 100 µM | [14] > 100 µM | [15] > 100 µM | [16] > 100 µM

COc1ccc(N/N=C/C2=CC(C)(C)C(C#N)(C#N)C(O)=C2C#N)cc1
inactive: [1] 56.6 µM | [2] 43.1 µM | [3] 37.7 µM | [4] 31.4 µM | [5] 46.9 µM | [6] 50 µM | [17] 21.6 µM | [7] 45.1 µM | [8] 25.6 µM | [10] 40.9 µM | [18] 16.1 µM | [11] 91.2 µM | [19] > 100 µM | [12] 37.7 µM | [13] 34.3 µM | [14] 28.4 µM | [15] 35.6 µM | [16] 43.6 µM

— ChEMBL document CHEMBL1201862, “PubChem BioAssay data set” (2004)
